Among the test systems are DU-145 prostate; PC-3 prostate; BT-549 breast; T-47D breast; OVCAR-5 ovarian; EKVX NSCLC.
Common to all, as to experiment: inhibition of tumour cell growth, NCI panel, 48 h

Several values for one entry are separate records, joined by “and”; a condition that tells them apart may be missing. Identical values can stand only once.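 48-hour exposure; five concentrations; linearly interpolated endpoints. GI50 = concentration required for 50% inhibition of growth. At the TGI there is no net growth.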

Turning to `Cc1ccc(OCC2OC(n3cnc4c(Br)nc(Br)nc43)CC2Oc2ccc(C)cc2)cc1` (stereo not drawn), the GI50 in the assay with DU-145 prostate was 13.1 µM; in the assay on PC-3 prostate, 5.42 µM; in the assay with BT-549 breast it was 9.96 µM; in the assay with T-47D breast it was 2.48 µM; with OVCAR-5 ovarian it was 16.1 µM; with EKVX NSCLC, 1.52 µM. For the same molecule, the TGI in the assay with DU-145 prostate was 23.8 µM and 5.88 µM; in the assay on PC-3 prostate, 16.2 µM and 11.8 µM; in the assay with BT-549 breast it was 20.6 µM and 34.4 µM; in the assay on T-47D breast, 29.7 µM and 6.82 µM; in the assay with OVCAR-5 ovarian, 34.2 µM and 42.2 µM; in the assay with EKVX NSCLC it was 3.25 µM and 4.15 µM.
As for `COc1ccc(/C=C2\c3cc(OC)c(OC)c(OC)c3CC[C@@H]2O)cc1F`, the GI50 in the assay on DU-145 prostate is 0.322 µM; in the assay with PC-3 prostate, 0.474 µM; in the assay on BT-549 breast, 0.443 µM; with T-47D breast, 0.36 µM; with OVCAR-5 ovarian, 10.4 µM; in the assay with EKVX NSCLC it was 0.823 µM. The TGI in the assay with DU-145 prostate is > 100 µM; with PC-3 prostate, > 100 µM; with BT-549 breast it was 42.7 µM; in the assay with T-47D breast, > 100 µM; in the assay on OVCAR-5 ovarian, > 100 µM; with EKVX NSCLC, > 100 µM.
For `CN(C)c1ccc(N=C2C=CC(=O)c3ccccc32)cc1`, the GI50 was 1.74 µM with DU-145 prostate; 2.66 µM with PC-3 prostate; 7.49 µM with BT-549 breast; 2.27 µM in the assay with T-47D breast; 12.6 µM with OVCAR-5 ovarian. The TGI is 3.13 µM in the assay with DU-145 prostate; 19.8 µM with PC-3 prostate; 20.5 µM in the assay with BT-549 breast; 6.01 µM in the assay on T-47D breast; 28.8 µM with OVCAR-5 ovarian.
Turning to `COc1ccc(OC)c(/C=C/c2nc(SCc3ccccc3)n(-c3ccc(Cl)cc3)n2)c1`, the GI50 in the assay on DU-145 prostate was 9.9 µM; in the assay with PC-3 prostate, 33.3 µM; in the assay on BT-549 breast, 11.6 µM; in the assay on T-47D breast, 11.5 µM; in the assay on OVCAR-5 ovarian, > 100 µM; in the assay with EKVX NSCLC it was 9.89 µM. For the same molecule, the TGI in the assay on DU-145 prostate is > 100 µM; with PC-3 prostate, > 100 µM; in the assay on BT-549 breast, 38.5 µM; with T-47D breast, 84.6 µM; in the assay on OVCAR-5 ovarian, > 100 µM; in the assay with EKVX NSCLC, > 100 µM.
As for `CN(C)c1ccc2nc(CC(O)(C(F)(F)F)C(F)(F)F)ccc2c1`, the TGI in the assay with DU-145 prostate, with PC-3 prostate, with BT-549 breast, with T-47D breast, in the assay on OVCAR-5 ovarian and in the assay on EKVX NSCLC was > 10 µM in each case.
Consider `O=C(O)CCC(C(=O)O)N1C(=O)C2C3CCC(C3)C2C1=O` (stereo not drawn), for which the TGI with DU-145 prostate, in the assay with PC-3 prostate, with BT-549 breast, in the assay with T-47D breast, in the assay with OVCAR-5 ovarian and in the assay on EKVX NSCLC was > 100 µM each time.
For `C/C(=N/N=C(N)N)c1ccc(NC(=O)Nc2ccc(/C(C)=N/N=C(N)N)cc2)cc1`, the GI50 is 11.2 µM in the assay on DU-145 prostate; 14.4 µM in the assay with PC-3 prostate; 14.8 µM in the assay on BT-549 breast; 8.29 µM in the assay on T-47D breast; 17.9 µM in the assay with OVCAR-5 ovarian; 19.2 µM with EKVX NSCLC. The TGI with DU-145 prostate amounted to 40.1 µM; in the assay on PC-3 prostate it was 46.9 µM; in the assay with BT-549 breast, 38.7 µM; in the assay on T-47D breast, 34.6 µM; in the assay on OVCAR-5 ovarian it was 56.6 µM; in the assay on EKVX NSCLC it was 49 µM.
On to `CC1=C([Se]CC(OC(=O)[C@@H](CO)NC(=O)OC(C)(C)C)C(=O)NCCCCCC(=O)OCc2ccccc2)C(=O)c2ccccc2C1=O` (stereo partly drawn), for which the GI50 in the assay with DU-145 prostate was 1.82 µM; in the assay with PC-3 prostate it was 1.23 µM; with BT-549 breast, 1.73 µM; with T-47D breast, 1.62 µM; in the assay with OVCAR-5 ovarian, 2.09 µM; with EKVX NSCLC, 1.81 µM. For the same molecule, the TGI came out at 3.26 µM with DU-145 prostate; 2.58 µM with PC-3 prostate; 3.11 µM in the assay with BT-549 breast; 3.95 µM in the assay with T-47D breast; 3.65 µM in the assay with OVCAR-5 ovarian; 3.87 µM with EKVX NSCLC.
As to `Cc1ccc(S(=O)(=O)Nc2ccc(-c3cc(-c4cccc(F)c4)c(C#N)c(N)n3)cc2)cc1`, the GI50 in the assay with DU-145 prostate is 2.33 µM; with PC-3 prostate, 2.19 µM; with BT-549 breast, 1.35 µM; with T-47D breast, 1.48 µM; in the assay with OVCAR-5 ovarian, 1.73 µM; in the assay on EKVX NSCLC, 2.17 µM. In addition, the TGI in the assay on DU-145 prostate amounted to 5.45 µM; in the assay with PC-3 prostate, 7.56 µM; in the assay with BT-549 breast, 2.78 µM; in the assay on T-47D breast it was 3.66 µM; in the assay with OVCAR-5 ovarian it was 3.46 µM; with EKVX NSCLC, 6.32 µM.
Consider `COc1cccc2c1C(=O)c1c(O)c3c(c(O)c1C2=O)CC(O)(C(=O)CO)CC3OC1CC(N)C(O)C(C)O1` (stereo not drawn), for which the GI50 in the assay with DU-145 prostate is 15.9 µg/mL and 71 µg/mL; with PC-3 prostate it was 37.2 µg/mL and 52.2 µg/mL; with BT-549 breast it was 34.6 µg/mL and 108 µg/mL; in the assay with T-47D breast, 7.53 µg/mL and 54.8 µg/mL; with OVCAR-5 ovarian it was 75 µg/mL and > 150 µg/mL; in the assay on EKVX NSCLC it was 75 µg/mL. The TGI in the assay on DU-145 prostate is 75 µg/mL and > 150 µg/mL; in the assay on PC-3 prostate it was 75 µg/mL and > 150 µg/mL; in the assay on BT-549 breast, 75 µg/mL and > 150 µg/mL; in the assay with T-47D breast it was 73.9 µg/mL and > 150 µg/mL; with OVCAR-5 ovarian it was 75 µg/mL and > 150 µg/mL; with EKVX NSCLC, 75 µg/mL.
For the molecule `CN(C)CCNC(=O)NC[C@H]1CC[C@@H]2[C@H](O1)c1cc(C(F)(F)F)ccc1N[C@H]2c1ccccc1`, the GI50 is 0.253 µM with DU-145 prostate; 0.265 µM in the assay with PC-3 prostate; 0.389 µM with BT-549 breast; 0.371 µM with T-47D breast; 0.609 µM in the assay with OVCAR-5 ovarian; 11.1 µM with EKVX NSCLC. In addition, the TGI in the assay with DU-145 prostate is 0.792 µM; in the assay with PC-3 prostate, 27 µM; with BT-549 breast, 14.7 µM; in the assay on T-47D breast, 17.8 µM; in the assay with OVCAR-5 ovarian, 22.6 µM; with EKVX NSCLC it was > 100 µM.
Take `COC1=CC(=O)c2nc(Cl)ccc2C1=O`: the GI50 was 1.65 µM with DU-145 prostate; 3.73 µM with PC-3 prostate; 2.54 µM in the assay with BT-549 breast; 2.06 µM in the assay with OVCAR-5 ovarian; 1.78 µM in the assay on EKVX NSCLC. Moreover, the TGI in the assay with DU-145 prostate came out at 3.01 µM; in the assay with PC-3 prostate, 16.5 µM; in the assay with BT-549 breast, 6.42 µM; in the assay with OVCAR-5 ovarian it was 4.88 µM; in the assay on EKVX NSCLC, 3.53 µM.

Values taken from PubChem BioAssay (NCI).
